Test system: 233499-124-R-J3-PDC spheroids with HUVEC/MSC, viability
Assay: Anticancer human tumor 233499-124-R-J3-PDC patient-derived colon adenocarcinoma cell line growth inhibition [PI3K]
Details: for viability, T/C: stronger effect = lower value
In short: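 Stroma-containing spheroids: tumor line, pooled-donor HUVEC, hMSC. Treatments: targeted agents with PI3K inhibitors. Dosing: clinically relevant, half-log spacing, 10 microM ceiling without known Cmax. Read-out: cell viability.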

[1] = curve of first compound, second compound 0.00316 µM
[2] = curve of first compound, second compound 0.01 µM
[3] = curve of first compound, second compound 0.0316 µM
[4] = curve of first compound, second compound 0.1 µM
[5] = curve of first compound, second compound 0.316 µM
[6] = curve of first compound, second compound 1 µM
[7] = second compound 0.00316 µM, first compound 0.0316 µM
[8] = second compound 0.00316 µM, first compound 0.1 µM
[9] = second compound 0.00316 µM, first compound 0.316 µM
[10] = second compound 0.00316 µM, first compound 1 µM
[11] = second compound 0.01 µM, first compound 0.0316 µM
[12] = second compound 0.01 µM, first compound 0.1 µM
[13] = second compound 0.01 µM, first compound 0.316 µM
[14] = second compound 0.01 µM, first compound 1 µM
[15] = second compound 0.0316 µM, first compound 0.0316 µM
[16] = second compound 0.0316 µM, first compound 0.1 µM
[17] = second compound 0.0316 µM, first compound 0.316 µM
[18] = second compound 0.0316 µM, first compound 1 µM
[19] = second compound 0.1 µM, first compound 0.0316 µM
[20] = second compound 0.1 µM, first compound 0.1 µM
[21] = second compound 0.1 µM, first compound 0.316 µM
[22] = second compound 0.1 µM, first compound 1 µM
[23] = second compound 0.316 µM, first compound 0.0316 µM
[24] = second compound 0.316 µM, first compound 0.1 µM
[25] = second compound 0.316 µM, first compound 0.316 µM
[26] = second compound 0.316 µM, first compound 1 µM
[27] = second compound 1 µM, first compound 0.0316 µM
[28] = second compound 1 µM, first compound 0.1 µM
[29] = second compound 1 µM, first compound 0.316 µM
[30] = second compound 1 µM, first compound 1 µM
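Note: spheroids exposed to agents for seven days before readout.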
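Throughout, for viability, T/C: percent viability relative to DMSO vehicle control taken as 100%.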

For CCN1CCN(Cc2ccc(Nc3ncc(F)c(-c4cc(F)c5nc(C)n(C(C)C)c5c4)n3)nc2)CC1 + CC(Nc1ccc2c(c1)OCCn1cc(N3C(=O)OCC3C(F)F)nc1-2)C(N)=O, the IC50 [1] was > 1000 nM, the IC50 [2] was 672 nM and the IC50 [3] was 528 nM. For the same compound, the IC50 [4] was 236 nM, the IC50 [5] was 86.9 nM and the IC50 [6] was 4.39 nM. The viability, T/C (second compound 0.00316 µM, first compound 0.00316 µM) was 68.8%, the viability, T/C (second compound 0.00316 µM, first compound 0.01 µM) was 98.9% and the viability, T/C [7] was 94%. The viability, T/C [8] was 73.7%, the viability, T/C [9] was 59.5% and the viability, T/C [10] was 49.7%. For the same compound, the viability, T/C (second compound 0.01 µM, first compound 0.00316 µM) was 106%, the viability, T/C (second compound 0.01 µM, first compound 0.01 µM) was 95.8% and the viability, T/C [11] was 89.7%. It also gave a viability, T/C [12] of 85.4%, a viability, T/C [13] of 79.9% and a viability, T/C [14] of 35.7%. It also gave a viability, T/C (second compound 0.0316 µM, first compound 0.00316 µM) of 90.2%, a viability, T/C (second compound 0.0316 µM, first compound 0.01 µM) of 85.2% and a viability, T/C [15] of 82%. The viability, T/C [16] was 91.6%, the viability, T/C [17] was 58.5% and the viability, T/C [18] was 39.3%. The viability, T/C (second compound 0.1 µM, first compound 0.00316 µM) was 87.8%, the viability, T/C (second compound 0.1 µM, first compound 0.01 µM) was 90.8% and the viability, T/C [19] was 73.8%. The viability, T/C [20] was 79%, the viability, T/C [21] was 39.4% and the viability, T/C [22] was 40.8%. For the same compound, the viability, T/C (second compound 0.316 µM, first compound 0.00316 µM) was 73.2%, the viability, T/C (second compound 0.316 µM, first compound 0.01 µM) was 72.7% and the viability, T/C [23] was 63%. It also gave a viability, T/C [24] of 51.1%, a viability, T/C [25] of 31.2% and a viability, T/C [26] of 44.5%. It also gave a viability, T/C (second compound 1 µM, first compound 0.00316 µM) of 55.3%, a viability, T/C (second compound 1 µM, first compound 0.01 µM) of 45.2% and a viability, T/C [27] of 32.2%. It also gave a viability, T/C [28] of 48.9%, a viability, T/C [29] of 42.6% and a viability, T/C [30] of 27.8%.
For C#Cc1c(F)ccc2cc(O)cc(-c3ncc4c(N5CC6CCC(C5)N6)nc(OCC56CCCN5CC(F)C6)nc4c3F)c12 (stereo unspecified), the viability, T/C (compound 0.0316 µM) was 96% [middle of 4 runs], the viability, T/C (compound 0.1 µM) was 102% [middle of 4 runs] and the viability, T/C (compound 0.316 µM) was 95.6% [middle of 4 runs]. The viability, T/C (compound 1 µM) was 99.3% [middle of 4 runs], the viability, T/C (compound 3.16 µM) was 87.5% [middle of 4 runs] and the viability, T/C (compound 10 µM) was 84.1% [middle of 4 runs]. The IC50 (curve of compound) was > 10000 nM.
With C=CC(=O)N1CCN(c2nc(=O)n(-c3c(C)ccnc3C(C)C)c3nc(-c4c(O)cccc4F)c(F)cc23)C(C)C1 (stereo unspecified) the viability, T/C (compound 0.0316 µM) was 91.7% [middle of 4 runs], the viability, T/C (compound 0.1 µM) was 99.3% [middle of 4 runs] and the viability, T/C (compound 1 µM) was 113% [middle of 4 runs]. The viability, T/C (compound 3.16 µM) was 99.9% [middle of 4 runs] and the IC50 (curve of compound) was > 10000 nM.
CC(C)NCC(C(=O)N1CCN(c2ncnc3c2C(C)CC3O)CC1)c1ccc(Cl)cc1 (stereo unspecified) + CC(Nc1ccc2c(c1)OCCn1cc(N3C(=O)OCC3C(F)F)nc1-2)C(N)=O was tested, and the IC50 [1] was > 10000 nM, the IC50 [2] was > 10000 nM and the IC50 [3] was > 10000 nM. For the same compound, the IC50 [4] was > 10000 nM, the IC50 [5] was > 10000 nM and the IC50 [6] was 7250 nM. The viability, T/C [7] was 53.2%, the viability, T/C [8] was 98.8% and the viability, T/C [9] was 74.7%. The viability, T/C [10] was 96%, the viability, T/C (second compound 0.00316 µM, first compound 3.16 µM) was 94.2% and the viability, T/C (second compound 0.00316 µM, first compound 10 µM) was 50.3%. The viability, T/C [11] was 96.7%, the viability, T/C [12] was 102% and the viability, T/C [13] was 94.8%. It also gave a viability, T/C [14] of 96.2%, a viability, T/C (second compound 0.01 µM, first compound 3.16 µM) of 86.1% and a viability, T/C (second compound 0.01 µM, first compound 10 µM) of 71.1%. For the same compound, the viability, T/C [15] was 89%, the viability, T/C [16] was 84.9% and the viability, T/C [17] was 89%. It also gave a viability, T/C [18] of 86.1%, a viability, T/C (second compound 0.0316 µM, first compound 3.16 µM) of 81.2% and a viability, T/C (second compound 0.0316 µM, first compound 10 µM) of 76.8%. It also gave a viability, T/C [19] of 87.7%, a viability, T/C [20] of 86.2% and a viability, T/C [21] of 77.3%. For the same compound, the viability, T/C [22] was 51.9%, the viability, T/C (second compound 0.1 µM, first compound 3.16 µM) was 80.8% and the viability, T/C (second compound 0.1 µM, first compound 10 µM) was 58.6%. It also gave a viability, T/C [23] of 72.2%, a viability, T/C [24] of 83.2% and a viability, T/C [25] of 69.7%. For the same compound, the viability, T/C [26] was 67.5%, the viability, T/C (second compound 0.316 µM, first compound 3.16 µM) was 59.9% and the viability, T/C (second compound 0.316 µM, first compound 10 µM) was 79.5%. For the same compound, the viability, T/C [27] was 49.2%, the viability, T/C [28] was 40.3% and the viability, T/C [29] was 65.2%. The viability, T/C [30] was 68.7%, the viability, T/C (second compound 1 µM, first compound 3.16 µM) was 50.9% and the viability, T/C (second compound 1 µM, first compound 10 µM) was 36.4%.
